From patent US11046716B2, “Beta-lactamase inhibitors” (priority 2015, dated 2021)

Legend:
[1] = biological target: T1, SHV-5 (Klebsiella pneumoniae, UniProt P0A3M1); assay: β-lactamase enzyme inhibition assay, SHV-5 (cefotaxime substrate); format: biochemical
T1 construct: made in house; host or cells: E. coli BL21(DE3)
Procedure, shortened: (§1)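 Read-out is the rate of β-lactam ring hydrolysis monitored by absorbance: 300 nm for imipenem with KPC-2 and 260 nm for cefotaxime with SHV-5. Recombinant native enzymes were first incubated with compound at 37 °C for 15 min. The IC50 is the inhibitor concentration that halves the initial hydrolysis rate.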

[2] = biological target: T2, KPC-2 (Klebsiella pneumoniae, UniProt Q9F663); assay: β-lactamase enzyme inhibition assay, KPC-2 (imipenem substrate); format: biochemical; conditions: Class A; imipenem substrate, 300 nm; read-out: KPC-2
T2 construct: made in house; host or cells: E. coli BL21(DE3)
T2 sequence (Q9F663 25-293, looked up): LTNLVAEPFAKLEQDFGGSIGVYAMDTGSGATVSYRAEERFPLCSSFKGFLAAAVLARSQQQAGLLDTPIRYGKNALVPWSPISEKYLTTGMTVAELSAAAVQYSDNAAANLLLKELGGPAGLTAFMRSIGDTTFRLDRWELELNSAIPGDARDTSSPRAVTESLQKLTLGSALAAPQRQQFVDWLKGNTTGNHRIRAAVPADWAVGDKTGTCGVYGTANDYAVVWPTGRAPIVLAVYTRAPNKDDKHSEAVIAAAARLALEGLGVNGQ
Procedure, shortened: as §1

[3] = biological target: T3, VIM-2 (Escherichia coli, UniProt Q5U7L7); assay: β-lactamase enzyme inhibition assay, VIM-2 (nitrocefin substrate); format: biochemical; conditions: Class B; nitrocefin substrate, 486 nm; read-out: VIM-2
T3 construct: made in house; host or cells: E. coli BL21(DE3)
Procedure, shortened: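 Nitrocefin hydrolysis, read at 486 nm over 10 min, served as the measure of VIM-2 activity. The enzyme had been incubated with compound for 15 min at 37 °C before 100 μM substrate was added, and IC50 values were fitted from percent inhibition of the initial rate.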

[4] = biological target: T4, AmpC (Enterobacter cloacae, UniProt P05364); assay: β-lactamase enzyme inhibition assay, p99 AmpC (nitrocefin substrate); format: biochemical
T4 construct: made in house; host or cells: E. coli BL21(DE3)
T4 sequence (P05364 21-381): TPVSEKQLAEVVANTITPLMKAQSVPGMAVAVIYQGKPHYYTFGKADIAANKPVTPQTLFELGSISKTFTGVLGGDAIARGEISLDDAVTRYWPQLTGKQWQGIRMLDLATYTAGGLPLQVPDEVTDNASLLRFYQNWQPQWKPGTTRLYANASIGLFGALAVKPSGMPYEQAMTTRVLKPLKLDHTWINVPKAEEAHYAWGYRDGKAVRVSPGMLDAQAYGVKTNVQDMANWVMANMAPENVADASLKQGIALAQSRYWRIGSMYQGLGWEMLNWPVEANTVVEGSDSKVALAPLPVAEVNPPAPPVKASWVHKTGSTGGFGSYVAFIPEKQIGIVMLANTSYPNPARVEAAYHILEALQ
Procedure, shortened: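 Read-out is the rate of β-lactam ring hydrolysis monitored by absorbance. Recombinant native enzymes were first incubated with compound at 37 °C for 15 min. The IC50 is the inhibitor concentration that halves the initial hydrolysis rate.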

[5] = biological target: OXA-48 (UniProt Q6XEC0); assay: β-lactamase enzyme inhibition assay, Class D oxacillinase; format: biochemical; conditions: read-out: OXA-48
[6] = tested on: E. coli expressing the Class A Extended Spectrum Beta-Lactamase (ESBL) CTX-M-15; assay: Broth microdilution MIC assay with ceftazidime, E. coli CTX-M-15; format: cell-based; conditions: Fixed CAZ (ceftazidime) 4 μg/mL; E. coli ESBL4 CTX-M-15
Procedure, shortened: (§2)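 Visual MIC readout of the test compound after 16-20 hours at 37° C, measured in the presence of a constant 4 μg/ml β-lactam. Compound concentrations spanned 16 to 0.125 μg/mL in 2-fold steps in cation-adjusted Mueller Hinton broth.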

[7] = tested on: E. cloacae expressing the Class C P99; assay: Broth microdilution MIC assay with ceftazidime, E. cloacae P99; format: cell-based; conditions: Fixed CAZ (ceftazidime) 4 μg/mL; E. cl. 144200 p99 AmpC
Procedure, shortened: as §2

[8] = tested on: K. pneumoniae expressing the Class A carbapenemase KPC-2; assay: Broth microdilution MIC assay with meropenem, K. pneumoniae KPC-2; format: cell-based; conditions: Fixed Mero (meropenem) 4 μg/mL; K. p. 156319 KPC-3
Procedure, shortened: as §2

[9] = tested on: P. aeruginosa expressing the Class B carbapenemase VIM-2; assay: Broth microdilution MIC assay with meropenem, P. aeruginosa VIM-2; format: cell-based; conditions: Fixed Mero (meropenem) 4 μg/mL; P. aerug. 2775 VIM-2
Procedure, shortened: as §2

[10] = tested on: K. pneumoniae expressing the class A carbapenemase KPC-2 and the class B carbapenemase VIM-4; assay: Broth microdilution MIC assay with meropenem, K. pneumoniae KPC-2 and VIM-4; format: cell-based; conditions: Fixed Mero (meropenem) 4 μg/mL; K. p. A-1797 KPC-2 VIM-4
Procedure, shortened: as §2

[11] = tested on: K. pneumoniae producing the Class D carbapenemase OXA-48; assay: Broth microdilution MIC assay with meropenem, K. pneumoniae OXA-48; format: cell-based; conditions: Fixed Mero (meropenem) 4 μg/mL; K. p. 11978 OXA-48
Procedure, shortened: as §2

T1 sequence (P0A3M1 22-286): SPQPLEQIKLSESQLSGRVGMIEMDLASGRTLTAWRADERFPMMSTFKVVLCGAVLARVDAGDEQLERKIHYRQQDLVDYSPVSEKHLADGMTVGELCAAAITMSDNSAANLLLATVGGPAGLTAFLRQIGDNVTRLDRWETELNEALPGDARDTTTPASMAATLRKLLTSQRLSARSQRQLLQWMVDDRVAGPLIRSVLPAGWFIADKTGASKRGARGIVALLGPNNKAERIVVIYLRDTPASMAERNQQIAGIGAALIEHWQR

SMILES	IC50 [1]	IC50 [2]	IC50 [3]	IC50 [4]	IC50 [5]	MIC (μg/mL) of Exemplary Compounds in presence of fixed β-lactams: E. coli ESBL4 CTX-M-15 [6]	MIC (μg/mL) of Exemplary Compounds in presence of fixed β-lactams: E. cl. 144200 p99 AmpC [7]	MIC (μg/mL) of Exemplary Compounds in presence of fixed β-lactams: K. p. 156319 KPC-3 [8]	MIC (μg/mL) of Exemplary Compounds in presence of fixed β-lactams: P. aerug. 2775 VIM-2 [9]	MIC (μg/mL) of Exemplary Compounds in presence of fixed β-lactams: K. p. A-1797 KPC-2 VIM-4 [10]	MIC (μg/mL) of Exemplary Compounds in presence of fixed β-lactams: K. p. 11978 OXA-48 [11]
NCc1cc(-c2cn(CC(=O)N[C@H]3Cc4cccc(C(=O)O)c4OB3O)nn2)cs1 [Example 55, (R)-3-(2-(4-(5-(aminomethyl)thiophen-3-yl)-1H-1,2,3-triazol-1-yl)acetamido)-2-hydroxy-3,4-dihydro-2H-benzo[e][1,2]oxaborinine-8-carboxylic acid]	< 100 nM	< 100 nM	100 to 1000 nM	< 100 nM	100 to 1000 nM	C (C represents an MIC of <1 μg/mL)	C (C represents an MIC of <1 μg/mL)	C (C represents an MIC of <1 μg/mL)	B (B represents an MIC between 1 and 16 μg/mL inclusive)	B (B represents an MIC between 1 and 16 μg/mL inclusive)	B (B represents an MIC between 1 and 16 μg/mL inclusive)
O=C(Cn1cc([N+](=O)[O-])cn1)N[C@H]1Cc2cccc(C(=O)O)c2OB1O [Example 56, (R)-2-hydroxy-3-(2-(4-nitro-1H-pyrazol-1-yl)acetamido)-3,4-dihydro-2H-benzo[e][1,2]oxaborinine-8-carboxylic acid]	< 100 nM	< 100 nM	100 to 1000 nM	< 100 nM	100 to 1000 nM	C (C represents an MIC of <1 μg/mL)	C (C represents an MIC of <1 μg/mL)	B (B represents an MIC between 1 and 16 μg/mL inclusive)	B (B represents an MIC between 1 and 16 μg/mL inclusive)	B (B represents an MIC between 1 and 16 μg/mL inclusive)	B (B represents an MIC between 1 and 16 μg/mL inclusive)
O=C(Cn1cc2c(n1)CNC2)N[C@H]1Cc2cccc(C(=O)O)c2OB1O [Example 57, (R)-3-(2-(5,6-dihydropyrrolo[3,4-c]pyrazol-2(4H)-yl)acetamido)-2-hydroxy-3,4-dihydro-2H-benzo[e][1,2]oxaborinine-8-carboxylic acid]	< 100 nM	< 100 nM	100 to 1000 nM	< 100 nM	1000 to 10000 nM	C (C represents an MIC of <1 μg/mL)	C (C represents an MIC of <1 μg/mL)	C (C represents an MIC of <1 μg/mL)	B (B represents an MIC between 1 and 16 μg/mL inclusive)	B (B represents an MIC between 1 and 16 μg/mL inclusive)	B (B represents an MIC between 1 and 16 μg/mL inclusive)
Nc1cnn(CC(=O)N[C@H]2Cc3cccc(C(=O)O)c3OB2O)c1 [Example 58, (R)-3-(2-(4-amino-1H-pyrazol-1-yl)acetamido)-2-hydroxy-3,4-dihydro-2H-benzo[e][1,2]oxaborinine-8-carboxylic acid]	< 100 nM	< 100 nM	100 to 1000 nM	< 100 nM	100 to 1000 nM	C (C represents an MIC of <1 μg/mL)	C (C represents an MIC of <1 μg/mL)	B (B represents an MIC between 1 and 16 μg/mL inclusive)	B (B represents an MIC between 1 and 16 μg/mL inclusive)	B (B represents an MIC between 1 and 16 μg/mL inclusive)	B (B represents an MIC between 1 and 16 μg/mL inclusive)
